# Assay results reported in paper PMC10111420, “Optimization of Host Cell-Compatible, Antimicrobial Peptides Effective against Biofilms and Clinical Isolates of Drug-Resistant Bacteria” (ACS Infectious Diseases, 2023).
# Where a SMILES comes first, the peptide text is derived from it. [ ]: non-standard residue; d: D form.
# Key:
# luminescent MRSA = test: Murine wound infection model, MRSA; assay type: in vivo, CD1 mice; settings: 75 μg in 20 μL water with 0.025% acetic acid, topical, every 8 h for the first 5 days; luminescence (IVIS), Days 1–3; four animals per group
# Description: Wound luminescence values were recorded once per day for each animal during the experiment using an IVIS whole animal imaging system. Total luminescence values, integrated over the entire wound area, were averaged for the four animals in each group. Treated versus control values were compared for each day using a two-sample t-test. Multiple comparisons were corrected using the method of Bonferroni.
# [1] = Post-surgery mouse monitoring (weight, wound condition); settings: monitored every day for 14 days, four mice per group, P. aeruginosa and MRSA infected mice, versus vehicle control
# Description: In this model, a deep surgical punch wound, created on the dorsal surface of healthy adult CD1 mice is stabilized with a silicone ring to prevent healing by contraction, and then, covered with a Tegaderm dressing. The wound bed, with a volume of ∼20 μL, is immediately infected with 1 × 10^5 cfu of luciferase-producing P. aeruginosa or MRSA.
# Female CD1 mice at 8–12 weeks of age were anesthetized via intraperitoneal injection of ketamine and xylazine at doses of 90 and 10 mg/kg, respectively. Their dorsal surface was depilated using an electric razor and scrubbed with a chlorhexidine solution. A full-thickness biopsy wound was generated using a 5 mm biopsy punch (Integra). To function as a splint for the wound, a 0.5 mm thick silicon (Invitrogen) ring with an outer diameter of 10 mm and a hole with a 5 mm diameter was placed over the wound and held to the skin with a surgical adhesive. The entire silicon ring was then covered with Tegaderm (3 M), and further adhered using 4-0 braided silk interrupted sutures (Ethicon). Mice were given 0.05 mg/kg buprenorphine immediately following surgery as well as daily for the next 2 days to alleviate pain from the procedure. […] Weight, activity, posture, coat condition, and wound condition were monitored each day throughout the duration of the experiment to ensure the well-being of each mouse. […]
# [2] = tested on: P. aeruginosa wound biofilms; test: SEM of Tegaderm wound dressing, P. aeruginosa; assay type: in vivo, CD1 mice; settings: dressing removed on Day 3, treated three times a day
# Description: (§1) The Tegaderm dressing used in the murine wound model is an excellent substrate for bacterial adhesion and biofilm formation.[5],[15] […] We imaged three to four randomly selected areas of each Tegaderm sample at two magnifications each. Each image is scored for the presence/absence of bacterial cells, either rod-shaped P. aeruginosa, ∼1 μm in diameter, or spherical MRSA cocci, ∼0.9 μm in diameter. Images are also scored for biofilm-like structures defined by having multiple bacteria embedded in an obvious three-dimensional matrix. These distinctions are shown by representative images of the fixed Tegaderm dressings in Figure 9A,B. In vehicle control samples, we observed that P. aeruginosa frequently forms an open, three-dimensional matrix in which many cells are entangled in μm-long fibers. We observed that MRSA also forms a matrix in which cells are close-packed in strands that comprise a large-scale mesh. Every SEM image (68/68) from vehicle control samples of the two bacteria contained obvious visible bacteria, and most of these images contained ≥50 individual cells. In samples from peptide-treated animals, 57 of 68 (84%) of images had no visible bacteria. […] We performed a statistical analysis of observed bacteria and biofilms using the binomial equation. P-values for all comparisons of treated vs vehicle were less than 0.001. […]
# [3] = tested on: P. aeruginosa and MRSA wound biofilms; test: SEM of Tegaderm wound dressing, both bacteria pooled; assay type: in vivo, CD1 mice; settings: 68 images from treated animals, Day 3 Tegaderm
# Description: as §1
# [4] = tested on: MRSA SAP400, a USA400 strain; test: microbe, parasite or virus in culture; settings: USA400
# Summary of the method: (§2)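 Antibiotics were serially diluted 2:3 in TSB and pre-incubated 30 min with or without type O+ human RBCs added as 2.5 × 10^9 cells/mL aliquots. Wells were […] at 5 × 10^5 CFU/mL and grown overnight at 37 °C, with OD600 below 0.1 taken as sterilized. RBC wells were subcultured overnight in fresh TSB; the largest sterilizing dilution was recorded, with 4–8 independent repeats.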
# [5] = tested on: Pseudomonas aeruginosa clinical isolates; test: microbe, parasite or virus in culture; settings: clinical isolates
# Summary of the method: as §2
# MRSA wound biofilms = test: SEM of Tegaderm wound dressing, MRSA; assay type: in vivo, CD1 mice; settings: dressing removed on Day 3, treated three times a day
# Description: as §1
# K. pneumoniae isolates = test: Susceptibility of all K. pneumoniae isolates (both sets); assay type: cell-based, Klebsiella pneumoniae; settings: both sets of clinical isolates
# Description: In parallel experiments, resistance of P. aeruginosa to multiple conventional antibiotics grew rapidly over just a few passages.[5] […] The mechanism of resistance avoidance is currently unknown. Further studies will be required to understand the mechanistic basis for the resistance avoidance of D-CONGA-Q7 against K. pneumoniae isolates. These insights will be particularly important for the advancement of resistance-avoiding AMPs into the clinic.
# [6] = tested on: 14 clinical isolates of resistant bacterial strains; test: Broth dilution, summary over the 14 clinical isolates of the first set; assay type: cell-based; settings: 14 clinical isolates of the first set
# Description: In Figure 4B, we plot the fraction of isolates sterilized as functions of antibiotic concentration.
# Subcultures, prepared by inoculating 25 mL of fresh tryptic soy broth (TSB) with 200 μL of an overnight culture, were grown to log phase (OD600 = 0.3–0.6), after which cell counts were determined by measuring the OD600 (1.0 = 5 × 10^8 CFU/mL for E. coli, 4 × 10^8 CFU/mL for K. pneumoniae, 4 × 10^8 CFU/mL for P. aeruginosa, 1.5 × 10^8 CFU/mL for S. aureus). Bacterial cells were diluted to appropriate concentrations in TSB. We used the following clinical bacterial isolates of Klebsiella pneumoniae in this study: Strains KP6, KP46, NDM-1, KP396, and KP398 have been previously described.[43] ST58 strains C2, C3, and I2 are also described.[41] […] MRSA, […] S. aureus strain, is SAP400, a USA400 strain of community-acquired MRSA. […] The second independent set of K. pneumoniae isolates are previously described.[20],[21]
# The antibiotics were serially diluted by a factor of 2:3 horizontally across 96-well plates from Corning, 25 μL per well. One column was reserved for controls. For the assays performed in the presence of RBC, type O+ human RBCs at 0 or 2.5 × 10^9 cells/mL were added in 50 μL aliquots to all wells. Following a 30-min incubation, 50 μL of TSB, inoculated with 5 × 10^5 CFU/mL, was added to all wells, and plates were incubated overnight at 37 °C. Following overnight incubation at 37 °C, the OD600 was measured (values of less than 0.1 were considered sterilized). To assess bacterial growth in the assays with RBC, the OD600 was measured after a second-day inoculation with 10 μL of solution from the original plate added to 100 μL of sterile TSB followed by overnight incubation.
# [7] = images with bacteria / all random images
# [8] = images with biofilm / all random images
structure (smiles),measurement,setting,value
CC(C)C[C@@H](NC(=O)[C@@H](CCC(N)=O)NC(=O)[C@@H](CCCNC(=N)N)NC(=O)[C@@H](CCCNC(=N)N)NC(=O)[C@@H](C)NC(=O)[C@@H](Cc1c[nH]c2ccccc12)NC(=O)[C@@H](CCCNC(=N)N)NC(=O)[C@H](N)CCCNC(=N)N)C(=O)N[C@H](C)C(=O)N[C@H](Cc1ccccc1)C(=O)N[C@H](C)C(=O)N[C@H](Cc1ccccc1)C(=O)N[C@H](CCCNC(=N)N)C(=O)N[C@H](CCCNC(=N)N)C(N)=O [D-CONGA-Q7] (H-[dR][dR][dW][dA][dR][dR][dQ][dL][dA][dF][dA][dF][dR][dR]-NH2; N-terminus assumed),Maximum reduction of MRSA burden,luminescent MRSA,≥ 4 logs
same,Weight loss of mice,[1],did not demonstrate any differential weight loss
same,Wound condition score,[1],no significant difference
same,P. aeruginosa: Bacteria present (SEM images of Tegaderm),[2]; [7],8/33
same,P. aeruginosa: Biofilm present (SEM images of Tegaderm),[2]; [8],0/33
same,Biofilm observed in SEM images,[3],no biofilm was observed
same,"MIC, MRSA USA400",[4],1.5 µM
same,"MIC, PA(mucoid)",[5],4.2 µM
same,"MIC, PA(non-mucoid)",[5],1.1 µM
same,MRSA: Bacteria Present (SEM images of Tegaderm),MRSA wound biofilms; [7],3/35
same,MRSA: Biofilm present (SEM images of Tegaderm),MRSA wound biofilms; [8],0/35
same,K. pneumoniae isolates susceptible,K. pneumoniae isolates,28 of 29
same,Fraction of clinical isolates sterilized at 2 μM,[6]; 2 μM,half
same,Fraction of clinical isolates sterilized at 5 μM,[6]; 5 μM,12/14
